In patent publication US20230265151A1, “GIP/GLP1 CO-AGONIST COMPOUNDS” (priority 2020, published 2023):
Where two headings read alike, the source gives them in different places. *1 amine or outer side, *2 acyl side, *3 side chain or, on linkers, in order; H or OH if unused. Where a SMILES comes first, the peptide text is derived from it. Side-chain parts run from the residue outwards. [ ]: non-standard residue; d: D form. The star is where a group is joined. αMePhe(2-F) = C[C@](N)(Cc1ccccc1F)C(=O)O; γGlu = O=C(O)[C@H](CCC(=O)[*:2])N[*:1]; C14 diacid = O=C(O)CCCCCCCCCCCCC(=O)*; αMeY = C[C@](N)(Cc1ccc(O)cc1)C(=O)O; 4Pal = N[C@@H](Cc1ccncc1)C(=O)O; αMeL = CC(C)C[C@](C)(N)C(=O)O; αMeS = C[C@](N)(CO)C(=O)O; Orn = NCCC[C@H](N)C(=O)O; AEEA = NCCOCCOCC(=O)O; Aib = CC(C)(N)C(=O)O

What was measured:
Type in all cases: cell-based
hGIPR = molecular target: T1, hGIPR (Homo sapiens, UniProt P48546); experiment: Functional cAMP formation (HTRF) in HEK-293 clonal cells expressing hGIPR, 0.1% bovine casein, without or with 1.0% human serum albumin; details: for EC50: geometric mean
T1 construct: expressed in transfected cells
T1 sequence (P48546 22-466): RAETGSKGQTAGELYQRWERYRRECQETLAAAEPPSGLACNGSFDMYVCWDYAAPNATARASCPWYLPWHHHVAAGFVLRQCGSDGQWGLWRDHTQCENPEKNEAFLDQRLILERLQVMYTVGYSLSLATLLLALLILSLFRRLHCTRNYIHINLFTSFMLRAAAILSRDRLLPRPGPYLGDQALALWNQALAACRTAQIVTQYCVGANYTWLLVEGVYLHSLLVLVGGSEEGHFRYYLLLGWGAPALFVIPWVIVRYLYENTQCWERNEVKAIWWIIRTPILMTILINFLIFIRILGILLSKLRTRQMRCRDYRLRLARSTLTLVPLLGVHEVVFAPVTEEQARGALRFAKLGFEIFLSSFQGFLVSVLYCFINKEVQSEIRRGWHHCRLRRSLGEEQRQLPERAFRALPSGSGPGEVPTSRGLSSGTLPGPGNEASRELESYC
How it was run: (§1)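 Cells were stimulated with peptide for 30 min at 37° C, then intracellular cAMP was measured by competitive HTRF (665/620 nm ratio) and converted to nM using a cAMP standard curve. Relative EC50 and Emax came from four-parameter logistic fits of percent maximal response against peptide concentration.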

hGLP-1R = hGLP-1R (Homo sapiens, UniProt P43220); experiment: Functional cAMP formation (HTRF) in HEK-293 clonal cells expressing hGLP-1R, 0.1% bovine casein, without or with 1.0% human serum albumin; set-up: expressed in transfected cells; details: for EC50: geometric mean
How it was run: as §1

hGCGR = molecular target: T2, hGCGR (Homo sapiens, UniProt P47871); experiment: Functional cAMP formation (HTRF) in HEK-293 clonal cells expressing hGCGR, 0.1% bovine casein, without or with 1.0% human serum albumin
T2 construct: expressed in transfected cells
How it was run: as §1

[1] = HEK293, read-out: hGIPR Emax, % ± SEM, 0.1% bovine casein and 1.0% human serum albumin, 37° C., percent of maximal response to GIP(1-42)NH2
[2] = HEK293, read-out: hGIPR Emax, % ± SEM, percent of maximal response to GIP(1-42)NH2, 37° C., 0.1% bovine casein, arithmetic mean
[3] = hGIPR EC50, nM (SEM, n), cAMP, incubated at 37° C., 0.1% bovine casein (no human serum albumin)
[4] = hGLP-1R EC50, nM (SEM, n), cAMP, incubated at 37° C., 0.1% bovine casein (no human serum albumin)
[5] = hGCGR EC50, nM (SEM, n), 0.1% bovine casein and 1.0% human serum albumin, 37° C., geometric mean
[6] = hGCGR EC50, nM (SEM, n), cAMP, incubated at 37° C., 0.1% bovine casein (no human serum albumin), geometric mean
[7] = hGLP-1R EC50, nM (SEM, n), 0.1% bovine casein and 1.0% human serum albumin, 37° C.

T2 sequence (P47871 26-477): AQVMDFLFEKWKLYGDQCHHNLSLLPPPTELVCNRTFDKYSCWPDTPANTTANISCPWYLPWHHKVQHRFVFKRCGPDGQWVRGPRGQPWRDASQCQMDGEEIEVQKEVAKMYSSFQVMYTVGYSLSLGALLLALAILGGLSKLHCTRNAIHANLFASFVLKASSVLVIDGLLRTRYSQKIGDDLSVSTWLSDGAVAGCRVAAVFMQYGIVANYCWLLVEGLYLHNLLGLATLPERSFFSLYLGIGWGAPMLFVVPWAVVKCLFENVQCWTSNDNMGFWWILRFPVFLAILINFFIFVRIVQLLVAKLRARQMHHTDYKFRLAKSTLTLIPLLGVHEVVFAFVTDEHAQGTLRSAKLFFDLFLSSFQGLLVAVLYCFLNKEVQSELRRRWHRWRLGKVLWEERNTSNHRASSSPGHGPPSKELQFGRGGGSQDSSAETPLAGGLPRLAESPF
Chain of hGLP-1R (P43220 24-463): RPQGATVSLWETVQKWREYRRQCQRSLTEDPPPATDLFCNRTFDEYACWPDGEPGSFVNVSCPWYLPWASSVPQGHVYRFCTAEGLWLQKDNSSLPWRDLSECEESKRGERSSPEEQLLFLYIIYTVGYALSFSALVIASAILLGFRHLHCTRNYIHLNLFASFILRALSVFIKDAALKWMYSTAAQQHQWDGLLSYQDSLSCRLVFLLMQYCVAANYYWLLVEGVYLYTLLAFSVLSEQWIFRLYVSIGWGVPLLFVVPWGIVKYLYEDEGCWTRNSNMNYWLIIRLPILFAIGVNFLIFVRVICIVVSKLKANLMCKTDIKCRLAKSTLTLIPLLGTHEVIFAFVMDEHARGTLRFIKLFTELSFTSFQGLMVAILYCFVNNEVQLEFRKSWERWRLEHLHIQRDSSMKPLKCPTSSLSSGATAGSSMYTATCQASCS

With `CC[C@H](C)[C@H](NC(=O)[C@H](CCCN)NC(=O)[C@H](CC(=O)O)NC(=O)[C@H](CC(C)C)NC(=O)[C@](C)(CC(C)C)NC(=O)[C@@H](NC(=O)[C@](C)(CO)NC(=O)[C@H](Cc1ccncc1)NC(=O)[C@H](CC(=O)O)NC(=O)[C@H](CO)NC(=O)[C@@H](NC(=O)[C@](C)(Cc1ccccc1F)NC(=O)[C@@H](NC(=O)CNC(=O)[C@H](CCC(=O)O)NC(=O)C(C)(C)NC(=O)[C@@H](N)Cc1ccc(O)cc1)[C@@H](C)O)[C@@H](C)O)[C@@H](C)CC)C(=O)N[C@@H](C)C(=O)N[C@@H](CCC(N)=O)C(=O)NC(C)(C)C(=O)N[C@@H](CCCCNC(=O)COCCOCCNC(=O)COCCOCCNC(=O)CC[C@H](NC(=O)CCCCCCCCCCCCC(=O)O)C(=O)O)C(=O)N[C@@H](Cc1ccccc1)C(=O)N[C@H](C(=O)N[C@@H](CCCCNC(=O)COCCOCCNC(=O)COCCOCCNC(=O)CC[C@H](NC(=O)CCCCCCCCCCCCC(=O)O)C(=O)O)C(=O)N[C@@](C)(Cc1ccc(O)cc1)C(=O)N[C@@H](CC(C)C)C(=O)N[C@H](C(=O)N[C@@H](CCC(=O)O)C(=O)NCC(=O)NCC(=O)N1CCC[C@H]1C(=O)N[C@@H](CO)C(=O)N[C@@H](CO)C(=O)NCC(=O)N[C@@H](C)C(=O)N1CCC[C@H]1C(=O)N1CCC[C@H]1C(=O)N1CCC[C@H]1C(=O)N[C@@H](CO)C(N)=O)[C@@H](C)CC)[C@@H](C)CC` [Example 215] (H-Y[Aib]EGT[αMePhe(2-F)]TSD[4Pal][αMeS]I[αMeL]LD[Orn]IAQ[Aib]K([AEEA-AEEA-γGlu-C14 diacid])FIK([AEEA-AEEA-γGlu-C14 diacid])[αMeY]LIEGGPSSGAPPPS-NH2) the Emax (hGIPR; [1]) was 91.3%, the Emax (hGIPR; [2]) was 85% and the EC50 (hGIPR; [3]) was 0.0437 nM. For the same compound, the Emax (hGLP-1R; HEK293, read-out: hGLP-1R Emax, % ± SEM, percent of maximal response to GLP-1(7-36)NH2, 37° C., 0.1% bovine casein, arithmetic mean) was 89.8%, the EC50 (hGLP-1R; [4]) was 0.44 nM and the EC50 (hGCGR; [5]) was greater than 9950 nM. The EC50 (hGCGR; [6]) was greater than 9950 nM.
Work on `CC[C@H](C)[C@H](NC(=O)[C@H](CC(C)C)NC(=O)[C@](C)(Cc1ccc(O)cc1)NC(=O)[C@@H](CCC(=O)O)NC(=O)[C@@H](NC(=O)[C@H](Cc1ccccc1)NC(=O)[C@H](CCCCNC(=O)CCOCCOCCOCCOCCNC(=O)CC[C@H](NC(=O)CCCCCCCCCCCCC(=O)O)C(=O)O)NC(=O)C(C)(C)NC(=O)[C@H](CCC(N)=O)NC(=O)[C@H](C)NC(=O)[C@H](CCCCNC(=O)CCOCCOCCOCCOCCNC(=O)CC[C@H](NC(=O)CCCCCCCCCCCCC(=O)O)C(=O)O)NC(=O)[C@H](CCCN)NC(=O)[C@H](CC(=O)O)NC(=O)[C@H](CC(C)C)NC(=O)[C@](C)(CC(C)C)NC(=O)[C@@H](NC(=O)C(C)(C)NC(=O)[C@H](Cc1ccncc1)NC(=O)[C@H](CC(=O)O)NC(=O)[C@H](CO)NC(=O)[C@@H](NC(=O)[C@](C)(Cc1ccccc1F)NC(=O)[C@@H](NC(=O)CNC(=O)[C@H](CCC(=O)O)NC(=O)C(C)(C)NC(=O)[C@@H](N)Cc1ccc(O)cc1)[C@@H](C)O)[C@@H](C)O)[C@@H](C)CC)[C@@H](C)CC)C(=O)N[C@@H](CCC(=O)O)C(=O)NCC(=O)NCC(=O)N1CCC[C@H]1C(=O)N[C@@H](CO)C(=O)N[C@@H](CO)C(=O)NCC(=O)N[C@@H](C)C(=O)N1CCC[C@H]1C(=O)N1CCC[C@H]1C(=O)N1CCC[C@H]1C(=O)N[C@@H](CO)C(N)=O` [Example 405] yielded an Emax (hGIPR; HEK293, cAMP, 37° C., 0.1% bovine casein and 1.0% human serum albumin, percent of maximal response to GIP(1-42)NH2, read-out: hGIPR Emax, % ± SEM) of 74.3%, an Emax (hGIPR; HEK293, cAMP, 37° C., 0.1% bovine casein, percent of maximal response to GIP(1-42)NH2, arithmetic mean, read-out: hGIPR Emax, % ± SEM) of 100% and an EC50 (hGIPR; cAMP, 37° C., 0.1% bovine casein (no human serum albumin), read-out: hGIPR EC50, nM (SEM, n)) of 0.0209 nM. It also gave an Emax (hGLP-1R; HEK293, cAMP, 37° C., 0.1% bovine casein and 1.0% human serum albumin, percent of maximal response to GLP-1(7-36)NH2, read-out: hGLP-1R Emax, % ± SEM) of 78.1%, an Emax (hGLP-1R; HEK293, cAMP, 37° C., 0.1% bovine casein, percent of maximal response to GLP-1(7-36)NH2, arithmetic mean, read-out: hGLP-1R Emax, % ± SEM) of 93.3% and an EC50 (hGLP-1R; cAMP, 37° C., 0.1% bovine casein (no human serum albumin), read-out: hGLP-1R EC50, nM (SEM, n)) of 1.26 nM. For the same compound, the EC50 (hGCGR; cAMP, 37° C., 0.1% bovine casein (no human serum albumin), geometric mean, read-out: hGCGR EC50, nM (SEM, n)) was greater than 9950 nM and the EC50 (hGCGR; cAMP, 37° C., 0.1% bovine casein and 1.0% human serum albumin, geometric mean (SEM, n), read-out: hGCGR EC50, nM (SEM, n)) was greater than 9950 nM.
`CC[C@H](C)[C@H](NC(=O)[C@H](CCCN)NC(=O)[C@H](CC(=O)O)NC(=O)[C@H](CC(C)C)NC(=O)[C@](C)(CC(C)C)NC(=O)[C@@H](NC(=O)[C@H](CO)NC(=O)[C@H](Cc1ccncc1)NC(=O)[C@H](CC(=O)O)NC(=O)[C@H](CO)NC(=O)[C@@H](NC(=O)[C@](C)(Cc1ccccc1F)NC(=O)[C@@H](NC(=O)CNC(=O)[C@H](CCC(=O)O)NC(=O)C(C)(C)NC(=O)[C@@H](N)Cc1ccc(O)cc1)[C@@H](C)O)[C@@H](C)O)[C@@H](C)CC)C(=O)N[C@@H](C)C(=O)N[C@@H](CCC(N)=O)C(=O)NC(C)(C)C(=O)N[C@@H](CCC(=O)O)C(=O)N[C@@H](Cc1ccccc1)C(=O)N[C@H](C(=O)N[C@@H](CCCCNC(=O)COCCOCCNC(=O)COCCOCCNC(=O)CC[C@H](NC(=O)CCCCCCCCCCCCC(=O)O)C(=O)O)C(=O)N[C@@](C)(Cc1ccc(O)cc1)C(=O)N[C@@H](CC(C)C)C(=O)N[C@H](C(=O)N[C@@H](CCC(=O)O)C(=O)NCC(=O)NCC(=O)N1CCC[C@H]1C(=O)N[C@@H](CO)C(=O)N[C@@H](CO)C(=O)NCC(=O)N[C@@H](C)C(=O)N1CCC[C@H]1C(=O)N1CCC[C@H]1C(=O)N1CCC[C@H]1C(=O)N[C@@H](CO)C(=O)N[C@@H](CCCCNC(=O)COCCOCCNC(=O)COCCOCCNC(=O)CC[C@H](NC(=O)CCCCCCCCCCCCC(=O)O)C(=O)O)C(N)=O)[C@@H](C)CC)[C@@H](C)CC` [Example 72] gave an Emax (hGIPR; [1]) of 95.9%, an Emax (hGIPR; [2]) of 96.5 ± 3.71% and an EC50 (hGIPR; hGIPR EC50, nM (SEM, n), 0.1% bovine casein and 1.0% human serum albumin, 37° C.) of 3.55 nM. It also gave an Emax (hGLP-1R; HEK293, read-out: hGLP-1R Emax, % ± SEM, 0.1% bovine casein and 1.0% human serum albumin, 37° C., percent of maximal response to GLP-1(7-36)NH2) of 98.8%, an EC50 (hGLP-1R; [7]) of 40.1 nM and an EC50 (hGLP-1R; [4]) of 0.245 nM. The EC50 (hGCGR; [5]) was greater than 9950 nM and the EC50 (hGCGR; [6]) was greater than 9950 nM.
`CC[C@H](C)[C@H](NC(=O)[C@H](CC(C)C)NC(=O)[C@](C)(Cc1ccc(O)cc1)NC(=O)[C@@H](CCC(=O)O)NC(=O)[C@@H](NC(=O)[C@H](Cc1ccccc1)NC(=O)[C@H](CCC(=O)O)NC(=O)C(C)(C)NC(=O)[C@H](CCC(N)=O)NC(=O)[C@H](C)NC(=O)[C@H](CCCCNC(=O)COCCOCCNC(=O)COCCOCCNC(=O)CC[C@H](NC(=O)CCCCCCCCCOc1ccc(C(=O)O)cc1)C(=O)O)NC(=O)[C@H](CCCN)NC(=O)[C@H](CC(=O)O)NC(=O)[C@H](CC(C)C)NC(=O)[C@](C)(CC(C)C)NC(=O)[C@@H](NC(=O)C(C)(C)NC(=O)[C@H](Cc1ccc(O)cc1)NC(=O)[C@H](CC(=O)O)NC(=O)[C@H](CO)NC(=O)[C@@H](NC(=O)[C@](C)(Cc1ccccc1F)NC(=O)[C@@H](NC(=O)CNC(=O)[C@H](CCC(=O)O)NC(=O)C(C)(C)NC(=O)[C@@H](N)Cc1ccc(O)cc1)[C@@H](C)O)[C@@H](C)O)[C@@H](C)CC)[C@@H](C)CC)C(=O)N[C@@H](CCC(=O)O)C(=O)NCC(=O)NCC(=O)N1CCC[C@H]1C(=O)N[C@@H](CO)C(=O)N[C@@H](CO)C(=O)NCC(=O)N[C@@H](C)C(=O)N1CCC[C@H]1C(=O)N1CCC[C@H]1C(=O)N1CCC[C@H]1C(=O)N[C@@H](CO)C(=O)N[C@@H](CCCCNC(=O)COCCOCCNC(=O)COCCOCCNC(=O)CC[C@H](NC(=O)CCCCCCCCCOc1ccc(C(=O)O)cc1)C(=O)O)C(N)=O` [Example 238] gave an Emax (hGIPR; [1]) of 90.5%, an EC50 (hGIPR; [3]) of 0.0214 nM and an EC50 (hGLP-1R; [7]) of 27.2 nM. The EC50 (hGLP-1R; [4]) was 1.03 nM, the EC50 (hGCGR; [5]) was greater than 9950 nM and the EC50 (hGCGR; [6]) was greater than 9950 nM.
